Measured values from article PMC9492542, “Brain-restricted mTOR inhibition with binary pharmacology” (Nature, 2022).
Read-outs that look alike come from different tables or passages of the source.

Columns and labels:
476 purified kinases [1] = target: 476 purified kinases (Homo sapiens, UniProt Q15835)
Procedure: (§1) In vitro kinase inhibition assays were performed by SelectScreen Services (Thermo Fisher Scientific) using either Z’-LYTE (mTOR, Src, Csk, EGFR, HER2 and HGK), Adapta (LRRK2) or LanthaScreen (DDR2) assay format (standardized protocols can be accessed on the SelectScreen website: https://www.thermofisher.com/us/en/home/products-and-services/services/custom-services/screening-and-profiling-services/selectscreen-profiling-service/selectscreen-kinase-profiling-service.html. When indicated, recombinant FKBP12 protein was added to the assay mixture to a final concentration of 10 µM.

476 purified kinases [2] = target: 476 purified kinases (Homo sapiens, UniProt Q86Z02); conditions: ZLYTE; 10 nM
Procedure: as §1

476 purified kinases [3] = target: 476 purified kinases (Homo sapiens, UniProt Q86UE8)
Procedure: as §1

476 purified kinases [4] = target: 476 purified kinases (Homo sapiens, UniProt O75385)
Procedure: as §1

476 purified kinases [5] = target: 476 purified kinases (Homo sapiens, UniProt O00238)
Procedure: as §1

476 purified kinases [6] = target: 476 purified kinases (Homo sapiens, UniProt O76039); conditions: ZLYTE
Sequence of 476 purified kinases (Homo sapiens, UniProt O76039) (O76039 whole entry): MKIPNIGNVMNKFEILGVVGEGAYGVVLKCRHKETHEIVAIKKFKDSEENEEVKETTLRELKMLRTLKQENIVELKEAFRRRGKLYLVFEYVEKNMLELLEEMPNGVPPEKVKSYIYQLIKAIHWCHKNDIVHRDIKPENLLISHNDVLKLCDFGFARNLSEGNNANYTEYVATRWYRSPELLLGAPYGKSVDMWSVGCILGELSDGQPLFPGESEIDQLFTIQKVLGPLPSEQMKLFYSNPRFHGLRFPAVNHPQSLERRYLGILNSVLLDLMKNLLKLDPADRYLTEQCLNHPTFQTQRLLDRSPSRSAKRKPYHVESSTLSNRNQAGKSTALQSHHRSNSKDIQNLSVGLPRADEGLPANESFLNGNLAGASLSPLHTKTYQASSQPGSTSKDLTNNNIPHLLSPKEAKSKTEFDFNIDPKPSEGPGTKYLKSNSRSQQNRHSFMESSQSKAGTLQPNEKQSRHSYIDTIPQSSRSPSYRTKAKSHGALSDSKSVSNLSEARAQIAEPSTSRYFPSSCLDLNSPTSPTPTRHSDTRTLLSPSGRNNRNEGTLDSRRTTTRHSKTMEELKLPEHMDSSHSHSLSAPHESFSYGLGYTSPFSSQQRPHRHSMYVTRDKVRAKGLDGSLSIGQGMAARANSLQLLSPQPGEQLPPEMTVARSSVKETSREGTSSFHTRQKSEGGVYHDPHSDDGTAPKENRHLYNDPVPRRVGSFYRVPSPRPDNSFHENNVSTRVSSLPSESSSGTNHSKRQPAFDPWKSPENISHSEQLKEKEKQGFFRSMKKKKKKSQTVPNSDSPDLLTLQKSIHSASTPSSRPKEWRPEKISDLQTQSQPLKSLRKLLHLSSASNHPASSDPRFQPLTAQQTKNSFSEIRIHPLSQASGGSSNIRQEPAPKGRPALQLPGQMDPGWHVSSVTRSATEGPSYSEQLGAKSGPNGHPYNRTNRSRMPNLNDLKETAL
Procedure: as §1

476 purified kinases [7] = target: 476 purified kinases (Homo sapiens, UniProt Q00526)
Sequence of 476 purified kinases (Homo sapiens, UniProt Q00526) (Q00526 whole entry): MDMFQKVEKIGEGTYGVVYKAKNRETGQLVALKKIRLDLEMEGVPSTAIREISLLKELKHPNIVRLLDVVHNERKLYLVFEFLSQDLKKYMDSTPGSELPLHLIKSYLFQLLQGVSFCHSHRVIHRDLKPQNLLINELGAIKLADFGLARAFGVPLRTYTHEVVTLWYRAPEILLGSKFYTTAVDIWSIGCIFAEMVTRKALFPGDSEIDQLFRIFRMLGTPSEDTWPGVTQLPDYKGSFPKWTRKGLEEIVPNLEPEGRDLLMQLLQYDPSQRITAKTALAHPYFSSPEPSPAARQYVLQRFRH
Procedure: as §1

476 purified kinases [8] = target: 476 purified kinases (Homo sapiens, UniProt P51957); conditions: ZLYTE
Procedure: as §1

476 purified kinases [9] = target: 476 purified kinases (Homo sapiens, UniProt Q13554); conditions: ZLYTE
Sequence of 476 purified kinases (Homo sapiens, UniProt Q13554) (Q13554 whole entry): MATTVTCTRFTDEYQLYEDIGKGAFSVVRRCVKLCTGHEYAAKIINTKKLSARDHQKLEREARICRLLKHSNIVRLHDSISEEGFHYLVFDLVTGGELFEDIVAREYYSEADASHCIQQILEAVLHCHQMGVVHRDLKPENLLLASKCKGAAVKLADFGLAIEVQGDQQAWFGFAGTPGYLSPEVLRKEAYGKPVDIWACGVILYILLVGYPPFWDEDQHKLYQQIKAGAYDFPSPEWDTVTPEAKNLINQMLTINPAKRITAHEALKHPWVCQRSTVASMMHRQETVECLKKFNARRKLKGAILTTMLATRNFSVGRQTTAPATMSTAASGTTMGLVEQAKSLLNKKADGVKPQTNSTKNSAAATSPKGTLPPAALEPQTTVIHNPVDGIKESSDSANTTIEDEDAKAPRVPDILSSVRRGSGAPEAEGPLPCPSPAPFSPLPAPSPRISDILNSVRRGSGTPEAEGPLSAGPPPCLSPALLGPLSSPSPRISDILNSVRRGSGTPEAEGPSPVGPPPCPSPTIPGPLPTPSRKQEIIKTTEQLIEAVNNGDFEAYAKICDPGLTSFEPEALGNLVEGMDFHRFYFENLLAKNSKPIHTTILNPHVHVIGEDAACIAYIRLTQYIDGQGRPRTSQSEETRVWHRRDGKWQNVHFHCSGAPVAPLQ
Procedure: as §1

476 purified kinases [10] = target: 476 purified kinases (Homo sapiens, UniProt Q96SB4); conditions: ZLYTE
Sequence of 476 purified kinases (Homo sapiens, UniProt Q96SB4) (Q96SB4 whole entry): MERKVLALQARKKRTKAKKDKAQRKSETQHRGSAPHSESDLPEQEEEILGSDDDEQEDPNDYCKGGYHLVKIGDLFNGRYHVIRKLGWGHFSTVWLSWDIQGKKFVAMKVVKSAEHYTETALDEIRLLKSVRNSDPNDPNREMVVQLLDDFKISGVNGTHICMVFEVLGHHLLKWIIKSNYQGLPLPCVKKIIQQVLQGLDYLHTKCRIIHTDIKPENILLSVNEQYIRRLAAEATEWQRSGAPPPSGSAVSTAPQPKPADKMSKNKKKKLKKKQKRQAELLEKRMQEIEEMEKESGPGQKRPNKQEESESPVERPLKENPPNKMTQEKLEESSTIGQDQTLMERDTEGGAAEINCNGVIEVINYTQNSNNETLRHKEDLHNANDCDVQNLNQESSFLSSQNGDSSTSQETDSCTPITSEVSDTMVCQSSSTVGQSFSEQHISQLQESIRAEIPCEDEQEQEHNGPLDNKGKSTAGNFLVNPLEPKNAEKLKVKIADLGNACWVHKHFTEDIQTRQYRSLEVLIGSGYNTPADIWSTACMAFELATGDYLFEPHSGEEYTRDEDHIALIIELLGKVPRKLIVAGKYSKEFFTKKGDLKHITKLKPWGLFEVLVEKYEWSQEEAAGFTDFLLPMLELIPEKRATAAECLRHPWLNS
Procedure: as §1

476 purified kinases [11] = target: 476 purified kinases (Homo sapiens, UniProt Q8NEB9)
Procedure: as §1

476 purified kinases [12] = target: 476 purified kinases (Homo sapiens, UniProt P37023)
Procedure: as §1

476 purified kinases [13] = target: 476 purified kinases (Homo sapiens, UniProt Q86UX6)
Procedure: as §1

476 purified kinases [14] = target: 476 purified kinases (Homo sapiens, UniProt Q96NX5); conditions: ZLYTE
Procedure: as §1

476 purified kinases [15] = target: 476 purified kinases (Homo sapiens, UniProt Q92630)
Procedure: as §1

476 purified kinases [16] = target: 476 purified kinases (Homo sapiens, UniProt P35916); conditions: ZLYTE
Procedure: as §1

476 purified kinases [17] = target: 476 purified kinases (Homo sapiens, UniProt Q7L7X3)
Procedure: as §1

476 purified kinases [18] = target: 476 purified kinases (Homo sapiens, UniProt Q15759); conditions: ZLYTE
Procedure: as §1

476 purified kinases [19] = target: 476 purified kinases (Homo sapiens, UniProt P57058)
Procedure: as §1

476 purified kinases [20] = target: 476 purified kinases (Homo sapiens, UniProt Q96GX5)
Procedure: as §1

476 purified kinases [21] = target: 476 purified kinases (Homo sapiens, UniProt Q96BR1); conditions: ZLYTE
Procedure: as §1

476 purified kinases [22] = target: 476 purified kinases (Homo sapiens, UniProt P37173)
Sequence of 476 purified kinases (Homo sapiens, UniProt P37173) (P37173 23-567): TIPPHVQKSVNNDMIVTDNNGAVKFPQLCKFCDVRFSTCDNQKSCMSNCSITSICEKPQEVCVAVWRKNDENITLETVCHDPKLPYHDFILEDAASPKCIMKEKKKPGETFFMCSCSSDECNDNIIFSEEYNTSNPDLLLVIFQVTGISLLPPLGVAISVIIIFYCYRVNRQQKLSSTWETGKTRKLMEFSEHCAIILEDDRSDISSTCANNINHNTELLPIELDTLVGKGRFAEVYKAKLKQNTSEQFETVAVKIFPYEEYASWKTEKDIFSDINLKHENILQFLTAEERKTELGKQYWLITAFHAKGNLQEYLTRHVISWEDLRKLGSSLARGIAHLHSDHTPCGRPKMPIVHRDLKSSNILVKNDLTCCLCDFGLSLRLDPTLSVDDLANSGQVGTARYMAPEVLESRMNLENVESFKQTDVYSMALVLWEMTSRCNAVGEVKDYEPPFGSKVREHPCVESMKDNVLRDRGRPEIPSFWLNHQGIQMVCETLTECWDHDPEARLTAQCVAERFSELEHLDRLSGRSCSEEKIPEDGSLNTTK
Procedure: as §1

476 purified kinases [23] = target: 476 purified kinases (Homo sapiens, UniProt Q13164); conditions: ZLYTE
Procedure: as §1

476 purified kinases [24] = target: 476 purified kinases (Homo sapiens, UniProt Q13555)
Procedure: as §1

476 purified kinases [25] = target: 476 purified kinases (Homo sapiens, UniProt P06493); conditions: ZLYTE
Procedure: as §1

476 purified kinases [26] = target: 476 purified kinases (Homo sapiens, UniProt P50750); conditions: Adapta; 10 nM
Procedure: as §1

476 purified kinases [27] = target: 476 purified kinases (Homo sapiens, UniProt Q9NY57)
Procedure: as §1

476 purified kinases [28] = target: 476 purified kinases (Homo sapiens, UniProt Q13873)
Procedure: as §1

476 purified kinases [29] = target: 476 purified kinases (Homo sapiens, UniProt Q16513)
Procedure: as §1

476 purified kinases [30] = target: 476 purified kinases (Homo sapiens, UniProt O00141); conditions: ZLYTE
Sequence of 476 purified kinases (Homo sapiens, UniProt O00141) (O00141 whole entry): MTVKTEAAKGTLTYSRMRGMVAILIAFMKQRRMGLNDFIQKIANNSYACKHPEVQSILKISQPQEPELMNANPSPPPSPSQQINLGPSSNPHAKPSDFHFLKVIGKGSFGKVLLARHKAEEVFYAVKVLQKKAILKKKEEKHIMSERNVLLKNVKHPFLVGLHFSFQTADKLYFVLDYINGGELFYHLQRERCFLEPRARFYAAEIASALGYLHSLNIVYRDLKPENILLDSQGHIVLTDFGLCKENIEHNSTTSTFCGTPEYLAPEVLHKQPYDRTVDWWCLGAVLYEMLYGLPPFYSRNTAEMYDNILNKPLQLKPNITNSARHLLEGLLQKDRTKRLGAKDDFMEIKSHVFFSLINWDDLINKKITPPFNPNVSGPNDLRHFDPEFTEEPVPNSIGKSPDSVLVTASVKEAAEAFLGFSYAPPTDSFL
Procedure: as §1

476 purified kinases [31] = target: 476 purified kinases (Homo sapiens, UniProt Q9H2X6); conditions: ZLYTE
Procedure: as §1

476 purified kinases [32] = target: 476 purified kinases (Homo sapiens, UniProt O43293); conditions: ZLYTE
Procedure: as §1

476 purified kinases [33] = target: 476 purified kinases (Homo sapiens, UniProt O75747)
Sequence of 476 purified kinases (Homo sapiens, UniProt O75747) (O75747 whole entry): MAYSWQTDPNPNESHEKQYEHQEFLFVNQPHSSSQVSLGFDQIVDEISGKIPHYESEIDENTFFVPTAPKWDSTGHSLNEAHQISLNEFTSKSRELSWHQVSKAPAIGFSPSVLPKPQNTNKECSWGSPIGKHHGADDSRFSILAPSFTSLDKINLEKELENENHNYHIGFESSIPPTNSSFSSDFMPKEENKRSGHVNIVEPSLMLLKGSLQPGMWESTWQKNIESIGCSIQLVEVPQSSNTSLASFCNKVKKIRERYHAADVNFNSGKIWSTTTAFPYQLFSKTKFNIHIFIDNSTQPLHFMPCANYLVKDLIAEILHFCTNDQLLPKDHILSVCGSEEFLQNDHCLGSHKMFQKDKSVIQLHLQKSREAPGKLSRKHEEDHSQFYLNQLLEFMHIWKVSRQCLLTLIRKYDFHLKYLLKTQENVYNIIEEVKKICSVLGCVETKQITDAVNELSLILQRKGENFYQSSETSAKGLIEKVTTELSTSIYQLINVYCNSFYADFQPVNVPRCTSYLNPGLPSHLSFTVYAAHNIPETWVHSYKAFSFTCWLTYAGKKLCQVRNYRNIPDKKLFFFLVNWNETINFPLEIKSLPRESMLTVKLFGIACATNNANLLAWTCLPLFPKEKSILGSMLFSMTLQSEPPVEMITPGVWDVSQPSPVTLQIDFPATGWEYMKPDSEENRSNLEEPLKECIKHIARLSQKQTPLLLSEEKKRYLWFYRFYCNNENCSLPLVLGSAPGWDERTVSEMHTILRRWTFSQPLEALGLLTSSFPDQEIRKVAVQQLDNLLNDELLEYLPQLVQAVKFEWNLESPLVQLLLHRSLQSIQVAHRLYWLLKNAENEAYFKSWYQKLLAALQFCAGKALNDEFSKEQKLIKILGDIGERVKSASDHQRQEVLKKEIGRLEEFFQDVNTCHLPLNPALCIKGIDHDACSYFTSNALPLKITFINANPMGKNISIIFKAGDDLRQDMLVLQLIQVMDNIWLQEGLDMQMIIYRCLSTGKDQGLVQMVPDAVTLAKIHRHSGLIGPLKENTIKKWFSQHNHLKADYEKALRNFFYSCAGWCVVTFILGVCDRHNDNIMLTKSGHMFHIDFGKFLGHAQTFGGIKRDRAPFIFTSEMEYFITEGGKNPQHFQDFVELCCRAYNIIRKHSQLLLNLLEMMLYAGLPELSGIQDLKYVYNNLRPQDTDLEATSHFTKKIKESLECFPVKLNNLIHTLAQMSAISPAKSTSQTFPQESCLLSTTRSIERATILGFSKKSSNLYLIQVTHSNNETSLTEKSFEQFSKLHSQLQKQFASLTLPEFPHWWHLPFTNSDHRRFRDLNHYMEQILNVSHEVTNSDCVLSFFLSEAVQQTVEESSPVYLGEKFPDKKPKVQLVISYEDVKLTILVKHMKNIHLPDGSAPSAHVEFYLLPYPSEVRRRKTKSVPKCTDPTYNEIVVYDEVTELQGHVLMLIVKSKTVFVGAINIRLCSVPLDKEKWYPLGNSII
Procedure: as §1

476 purified kinases [34] = target: 476 purified kinases (Homo sapiens, UniProt Q8NI60)
Procedure: as §1

476 purified kinases [35] = target: 476 purified kinases (Homo sapiens, UniProt Q14004)
Procedure: as §1

476 purified kinases [36] = target: 476 purified kinases (Homo sapiens, UniProt Q9H4B4); conditions: ZLYTE
Procedure: as §1

Q: Which “GRK1 (LanthaScreen Binding)” value (476 purified kinases [1]; 10 nM compound) does the source give for Cc1nc(Nc2ncc(C(=O)Nc3c(C)cccc3Cl)s2)cc(N2CCN(CCO)CC2)n1 [Dasatinib] here?
A: 2

Q: And the “GRK1 (LanthaScreen Binding)” value (476 purified kinases [1]; 10 nM compound + 10 µM FKBP12)?
A: 7

Q: And the “HIPK1 (Myak) (kinase profiling)” value (476 purified kinases [2])?
A: 1

Q: And the “TLK2 (LanthaScreen Binding)” value (476 purified kinases [3]; 10 nM compound)?
A: -3

Q: And the “TLK2 (LanthaScreen Binding)” value (476 purified kinases [3]; 10 nM compound + 10 µM FKBP12)?
A: -3

Q: What about the “ULK1 (LanthaScreen Binding)” value (476 purified kinases [4]; 10 nM compound) of the same molecule?
A: -2

Q: And the “ULK1 (LanthaScreen Binding)” value (476 purified kinases [4]; 10 nM compound + 10 µM FKBP12)?
A: 0

Q: And the “BMPR1B (ALK6) (LanthaScreen Binding)” value (476 purified kinases [5]; 10 nM compound)?
A: 7

Q: What about the “BMPR1B (ALK6) (LanthaScreen Binding)” value (476 purified kinases [5]; 10 nM compound + 10 µM FKBP12) of the same molecule?
A: -9

Q: What about the “CDKL5 (kinase profiling)” value (476 purified kinases [6]; 10 nM) of the same molecule?
A: 5

Q: And the “CDKL5 (kinase profiling)” value (476 purified kinases [6]; 10 nM + 10 µM FKBP12)?
A: 7

Q: And the “CDK3/cyclin E1 (LanthaScreen Binding)” value (476 purified kinases [7]; 10 nM compound)?
A: 0

Q: And the “CDK3/cyclin E1 (LanthaScreen Binding)” value (476 purified kinases [7]; 10 nM compound + 10 µM FKBP12)?
A: -21

Q: And the “NEK4 (kinase profiling)” value (476 purified kinases [8]; 10 nM)?
A: 4

Q: What about the “NEK4 (kinase profiling)” value (476 purified kinases [8]; 10 nM + 10 µM FKBP12) of the same molecule?
A: 7

Q: And the “CAMK2B (CaMKII beta) (kinase profiling)” value (476 purified kinases [9]; 10 nM)?
A: 7

Q: And the “CAMK2B (CaMKII beta) (kinase profiling)” value (476 purified kinases [9]; 10 nM + 10 µM FKBP12)?
A: 7

Q: And the “SRPK1 (kinase profiling)” value (476 purified kinases [10]; 10 nM)?
A: 4

Q: And the “SRPK1 (kinase profiling)” value (476 purified kinases [10]; 10 nM + 10 µM FKBP12)?
A: 3

Q: And the “PIK3C3 (hVPS34) (Adapta)” value (476 purified kinases [11]; 10 nM compound)?
A: 2

Q: And the “PIK3C3 (hVPS34) (Adapta)” value (476 purified kinases [11]; 10 nM compound + 10 µM FKBP12)?
A: -1

Q: What about the “ACVRL1 (ALK1) (LanthaScreen Binding)” value (476 purified kinases [12]; 10 nM compound) of the same molecule?
A: 16

Q: And the “ACVRL1 (ALK1) (LanthaScreen Binding)” value (476 purified kinases [12]; 10 nM compound + 10 µM FKBP12)?
A: 0

Q: What about the “STK32C (YANK3) (LanthaScreen Binding)” value (476 purified kinases [13]; 10 nM compound) of the same molecule?
A: -1

Q: And the “STK32C (YANK3) (LanthaScreen Binding)” value (476 purified kinases [13]; 10 nM compound + 10 µM FKBP12)?
A: -2

Q: What about the “CAMK1G (CAMKI gamma) (kinase profiling)” value (476 purified kinases [14]; 10 nM) of the same molecule?
A: 1

Q: What about the “CAMK1G (CAMKI gamma) (kinase profiling)” value (476 purified kinases [14]; 10 nM + 10 µM FKBP12) of the same molecule?
A: -5

Q: And the “DYRK2 (LanthaScreen Binding)” value (476 purified kinases [15]; 10 nM compound)?
A: -6

Q: And the “DYRK2 (LanthaScreen Binding)” value (476 purified kinases [15]; 10 nM compound + 10 µM FKBP12)?
A: -4

Q: And the “FLT4 (VEGFR3) (kinase profiling)” value (476 purified kinases [16]; 10 nM)?
A: 7

Q: And the “FLT4 (VEGFR3) (kinase profiling)” value (476 purified kinases [16]; 10 nM + 10 µM FKBP12)?
A: 0

Q: And the “TAOK1 (LanthaScreen Binding)” value (476 purified kinases [17]; 10 nM compound)?
A: -5

Q: What about the “TAOK1 (LanthaScreen Binding)” value (476 purified kinases [17]; 10 nM compound + 10 µM FKBP12) of the same molecule?
A: 1

Q: And the “MAPK11 (p38 beta) (kinase profiling)” value (476 purified kinases [18]; 10 nM)?
A: 8

Q: And the “MAPK11 (p38 beta) (kinase profiling)” value (476 purified kinases [18]; 10 nM + 10 µM FKBP12)?
A: 9

Q: And the “HUNK (LanthaScreen Binding)” value (476 purified kinases [19]; 10 nM compound)?
A: 0

Q: What about the “HUNK (LanthaScreen Binding)” value (476 purified kinases [19]; 10 nM compound + 10 µM FKBP12) of the same molecule?
A: 5

Q: What about the “MASTL (LanthaScreen Binding)” value (476 purified kinases [20]; 10 nM compound) of the same molecule?
A: 0

Q: What about the “MASTL (LanthaScreen Binding)” value (476 purified kinases [20]; 10 nM compound + 10 µM FKBP12) of the same molecule?
A: -1

Q: What about the “SGKL (SGK3) (kinase profiling)” value (476 purified kinases [21]; 10 nM) of the same molecule?
A: 7

Q: What about the “SGKL (SGK3) (kinase profiling)” value (476 purified kinases [21]; 10 nM + 10 µM FKBP12) of the same molecule?
A: 6

Q: And the “TGFBR2 (LanthaScreen Binding)” value (476 purified kinases [22]; 10 nM compound)?
A: -5

Q: What about the “TGFBR2 (LanthaScreen Binding)” value (476 purified kinases [22]; 10 nM compound + 10 µM FKBP12) of the same molecule?
A: -5

Q: What about the “MAPK7 (ERK5) (kinase profiling)” value (476 purified kinases [23]; 10 nM) of the same molecule?
A: 5

Q: And the “MAPK7 (ERK5) (kinase profiling)” value (476 purified kinases [23]; 10 nM + 10 µM FKBP12)?
A: 5

Q: And the “CAMK2G (CaMKII gamma) (LanthaScreen Binding)” value (476 purified kinases [24]; 10 nM compound)?
A: -2

Q: What about the “CAMK2G (CaMKII gamma) (LanthaScreen Binding)” value (476 purified kinases [24]; 10 nM compound + 10 µM FKBP12) of the same molecule?
A: 5

Q: What about the “CDK1/cyclin B (kinase profiling)” value (476 purified kinases [25]; 10 nM) of the same molecule?
A: 3

Q: What about the “CDK1/cyclin B (kinase profiling)” value (476 purified kinases [25]; 10 nM + 10 µM FKBP12) of the same molecule?
A: 3

Q: And the “CDK9/cyclin T1 (kinase profiling)” value (476 purified kinases [26])?
A: 8

Q: What about the “STK32B (YANK2) (LanthaScreen Binding)” value (476 purified kinases [27]; 10 nM compound) of the same molecule?
A: -5

Q: And the “STK32B (YANK2) (LanthaScreen Binding)” value (476 purified kinases [27]; 10 nM compound + 10 µM FKBP12)?
A: -1

Q: And the “BMPR2 (LanthaScreen Binding)” value (476 purified kinases [28]; 10 nM compound)?
A: 0

Q: What about the “BMPR2 (LanthaScreen Binding)” value (476 purified kinases [28]; 10 nM compound + 10 µM FKBP12) of the same molecule?
A: 3

Q: And the “PKN2 (PRK2) (LanthaScreen Binding)” value (476 purified kinases [29]; 10 nM compound)?
A: 4

Q: What about the “PKN2 (PRK2) (LanthaScreen Binding)” value (476 purified kinases [29]; 10 nM compound + 10 µM FKBP12) of the same molecule?
A: 5

Q: And the “SGK (SGK1) (kinase profiling)” value (476 purified kinases [30]; 10 nM)?
A: 2

Q: And the “SGK (SGK1) (kinase profiling)” value (476 purified kinases [30]; 10 nM + 10 µM FKBP12)?
A: 2

Q: And the “HIPK2 (kinase profiling)” value (476 purified kinases [31]; 10 nM)?
A: 8

Q: And the “HIPK2 (kinase profiling)” value (476 purified kinases [31]; 10 nM + 10 µM FKBP12)?
A: 11

Q: And the “DAPK3 (ZIPK) (kinase profiling)” value (476 purified kinases [32]; 10 nM)?
A: 2

Q: And the “DAPK3 (ZIPK) (kinase profiling)” value (476 purified kinases [32]; 10 nM + 10 µM FKBP12)?
A: 0

Q: What about the “PIK3C2G (PI3K-C2 gamma) (Adapta)” value (476 purified kinases [33]; 10 nM compound) of the same molecule?
A: 3

Q: What about the “PIK3C2G (PI3K-C2 gamma) (Adapta)” value (476 purified kinases [33]; 10 nM compound + 10 µM FKBP12) of the same molecule?
A: -4

Q: And the “ADCK3 (LanthaScreen Binding)” value (476 purified kinases [34]; 10 nM compound)?
A: -1

Q: What about the “ADCK3 (LanthaScreen Binding)” value (476 purified kinases [34]; 10 nM compound + 10 µM FKBP12) of the same molecule?
A: 16

Q: What about the “CDK13/cyclin K (LanthaScreen Binding)” value (476 purified kinases [35]; 10 nM compound) of the same molecule?
A: 4

Q: And the “CDK13/cyclin K (LanthaScreen Binding)” value (476 purified kinases [35]; 10 nM compound + 10 µM FKBP12)?
A: -3

Q: And the “PLK3 (kinase profiling)” value (476 purified kinases [36]; 10 nM)?
A: -4

Q: And the “PLK3 (kinase profiling)” value (476 purified kinases [36]; 10 nM + 10 µM FKBP12)?
A: -21
